In series [1] the test system is C. albicans 475/15 biofilm formation. The series is described as follows: Inhibition of biofilm formation (crystal violet). As to conditions: for reduction of biofilm formation: concentration not given. Type of series: cell-based, Candida albicans. How it is done:
Potential of selected compounds to interfere with C. albicans 475/15 biofilm formation was investigated as previously described. Briefly, C. albicans 475/15 was incubated with serial dilution of the compounds (MIC and subMICs) in YPD medium, in 96-well microtiter plates with adhesive bottom (Sarstedt, Nümbrecht, Germany), at 37 °C for 24 h. After incubation, wells were washed twice with sterile PBS and methanol was added into each well. After fixation, methanol was discarded, and the plate was air dried. Formed biofilms were stained with 0.1% crystal violet (Bio-Merieux, Craponne, France) for 30 min. The plate was gently washed under the tap of water and air dried. The stain bound to the remaining biofilms was dissolved with ethanol (96%, Zorka, Šabac, Serbia). Absorbance was read on a Multiskan™ FC Microplate Photometer, Thermo Scientific™. The percentage of inhibition of biofilm formation was calculated by the formula:[(A620control − A620sample)/A620control] × 100

The subject of series [2] is C. albicans 475/15 hyphal growth. Description: Anti-hyphal forming activity. Type of series: cell-based, Candida albicans. As to conditions: MIC, 4 h, YPD + 10% FBS. Here is the method:
C. albicans 475/15 cells were incubated with MIC of tested compounds in YPD + 10% FBS, at 37 °C, for 4 h. Cells were examined under microscope (Nikon Eclipse TS2, Amsterdam, Netherland) and number of cells, growing in the yeast or hyphal and germ tube formations, was determined. Assay was performed in triplicate and percentage of hyphae was determined.

The subject of series [3] is CDR1. The series is described as follows: Expression of CDR1 (qPCR). As to conditions: treatment with MIC; for CDR1 expression level, log2FC: 30 min, normalized to ACT1. Type of series: cell-based, Candida albicans. How it is done:
(§1) Total RNA was isolated as described by Sanglard et al. with some modifications. C. albicans 475/15 was grown with agitation at 30 °C in YEPD until OD540 = 0.4. C. albicans cells were incubated with MIC of compounds in YEPD at 30 °C with agitation for 30 min. Cells were centrifuged (4600 rpm, 4 °C for 5 min (Rotanata 460 R, Hettich, Tuttlingen, Germany)) and the pellet was resuspended in 300 µL of RNA buffer (0.1 M Tris-HCl pH 7.5, 0.1M LiCl, 10mM EDTA, 0.5% SDS). The pellet was homogenized with 200 µL of DEPC treated glass beads and 300 µL of Phenol:Chloroform:Isoamyl Alcohol (Sigma-Aldrich, Darmstadt, Germany) in Precellys Evolution tissue homogenizer (Bertion instruments, Montigny-le-Bretonneux, France) at 4500 rpm for 5 s. After centrifugation (14,000 rpm, 4 °C, 1 min (Universal 32 R, Hettich, Tuttlingen, Germany)) 200 µL of supernatant was vortexed with 250 µL of Phenol:Chloroform:Isoamyl Alcohol for 10 s. Samples were centrifuged (14,000 rpm, 4 °C, 1 min) and 200 µL of supernatant was transferred to new tubes, 400 µL of ice-cold 99% ethanol was added to each tube, and they were kept on dry ice for 10 min. Samples were centrifuged (14,000 rpm, 4 °C, 2 min), pellet was washed with ethanol (70%), left to dry at room temperature, after which it was dissolved in 50 µL of DEPC treated water. Nanodrop (ND-1000, Witec AG, Sursee, Switzerland) was used for determination of concentration and purity of samples. RNA was stored at −80°C.
(§2) Amount of 10 µg RNA was incubated with 5 µL of DNAse buffer and 1 µL of DNAse at 37 °C for 30 min (DNA-free™ DNA Removal Kit, Ambion, Bleiswijk, Netherlands). After addition of DNAse inactivation reagent tubes were kept at room temperature with occasional vortexing for 5 min. Samples were centrifuged (14,000 rpm, 4°C, 2 min) and the concentration and quality of supernatant were analyzed on Nanodrop (ND-1000, Witec AG, Sursee, Switzerland).
(§3) Synthesis of cDNA was done with a Transcriptor High Fidelity cDNA synthesis kit (Roche). RNA (1 µg) was incubated with 60 µM random hexamer primers, in 11.4 µL of total sample volume, at 65 °C for 10 min. The mixture of Transcriptase reaction buffer 5×, Deoxynucleotide mix, DTT, Protector RNAse inhibitor, and Transcriptor High Fidelity Reverse Transcriptase was added to each tube according to manufacturer instructions. Synthesis of cDNA was completed by incubating the mixture at 50 °C for 30 min and 85 °C for 5 min (Peqstar thermocycler, Peqlab, Erlangen, Germany).
(§4) Wells of MicroAmp Fast 96-Well Reaction plate ((0.1 mL), Applied biosystems, Waltham, MA, USA) were incubated with 10 µL of mixture (cDNA, 2× MasterMix, primers, probe (Table 3), and water). Analysis was performed in StepOnePlus Real Time PCR system with relative standard curve method. Expression levels of CDR1 and ERG11 were normalized to expression of ACT1.
(In general: In qPCR the cycle at which signal appears reflects the starting amount.)

Series [4] relates to ERG11. Description: Expression of ERG11 (qPCR). It is filed as cell-based, Candida albicans. To be noted: treatment with MIC. How it is done:
as §1, §2, §3, §4

The next series in a line: in vitro. As to conditions: pig. Here is the method:
(§5) Preparation of PLP2 cell line was performed with freshly harvested porcine liver supplied from a local slaughter house. Tissues from the liver were washed in Hank’s balanced salt solution comprising 100 U/mL penicillin and 100 μg/mL streptomycin and split into 1 × 1 mm^3 explants. Some of the prepared explants were set in 25 cm^2 tissue flasks in Dulbecco’s modified Eagle’s medium (DMEM) with 10% fetal bovine serum (FBS), 2 mM nonessential amino acids, 100 U/mL penicillin, and […] streptomycin, and incubation was conducted at 37 °C with 5% CO2 in a humidified atmosphere. The fresh medium was added every 2 days. Cultivation of the cells was further conducted with direct observation by the phase contrast microscope every 2–3 days. Before confluence was achieved, cells were subcultured and seeded in 96-well plates at a density of 1.0 × 10^4 cells per well and cultivated in DMEM supplemented with 10% FBS, 100 U/mL penicillin, and 100 μg/mL streptomycin. Previously described Sulforhodamine B assay was used for the determination of cytotoxicity. The obtained results were defined as GI50 values corresponding to the compound concentration that inhibits 50% of the net cell growth. Ellipticine was used as a positive control.

Series [5] deals with C. albicans 475/15. More on the design: method as in PMID 28827996. As to conditions: previously published; cited from earlier work.
The next series concerns C. albicans biofilm. As to conditions: cited from earlier work.
The test system of another series is S. aureus efflux. Details: method as in PMID 25961825. To be noted: bacterial efflux pumps; cited from earlier work.
The test system of series [6] is HUVE (human umbilical vein endothelial) cells. To be noted: read-out: LC50; cited from earlier work.
The test system of the next series is porcine liver cells PLP2. The series is described as follows: Cytotoxicity, Sulforhodamine B assay. As to conditions: PLP2 cells. How it is done: as §5
Another series has as its system 3T3-L1 pre-adipocytes. As to conditions: up to 100 μM; cited from earlier work.
The test system of another series is C. albicans 10/15. The series is described as follows: Microdilution assay, MIC and MFC. To be noted: Candida albicans, C. albicans 10/15, mean ± SD of three replicates. It is filed as cell-based. The source says: (§6) C. albicans was isolated from oral cavities of patients at ENT Clinic, Clinical Hospital Centre Zvezdara, Belgrade, Serbia after obtaining informed written consent and identified by using CHROMagar plates (Biomerieux, Craponne, France). Strains were maintained on Sabouraud Dextrose Agar (Merck, Darmstadt, Germany) and are deposited at the Mycological Laboratory, Department of Plant Physiology, Institute for Biological Research “Siniša Stanković”, National Institute of Republic of Serbia, University of Belgrade. The collection of samples was approved by the Ethical Committee (Office for Human Research Protection, Zvezdara University Medical Center, Belgrade, Serbia, document issued 26 October 2016).
(§7) Microdilution assay with some modification was used for determination of minimum inhibitory (MIC) and minimum fungicidal concentrations (MFC). Yeast cultures were adjusted to 1.0 × 10^5 CFU/per well with sterile PBS (Phosphate buffered saline, pH 7.4). The 96-well microtiter plates with serially diluted flavonoids (concentration range 0.3–75 µg/mL) in liquid broth were incubated at 37 °C for 24 h. After incubation, MIC and MFC were determined. The lowest concentrations that were not inducing microscopically observed growth were considered as MIC. For microscopic determination of growth, we used inverted microscope Nikon Eclipse TS2 (Amsterdam, Netherland) and examined the fungal growth in the wells of 96-well microtiter plates compared to the control (untreated yeast cells). MFC values were determined as concentrations without visible growth after serial sub-cultivation of 10 µL of samples at 37 °C for 24 h. Ketoconazole and amphotericin B (SigmaAldrich, Darmstadt, Germany) were used as an antifungal control. The tested flavonoids were obtained from Extrasynthese, Rhone, France.
(In general: Dilution methods test growth across graded concentrations, often in twofold steps.)

The next series concerns C. albicans 13/15. Description: Microdilution assay, MIC and MFC. It is filed as cell-based. As to conditions: Candida albicans, C. albicans 13/15, mean ± SD of three replicates.
Excerpt: as §6, §7

For series [7], the system named is C. albicans 475/15. Description: Microdilution assay, MIC and MFC. Type of series: cell-based. As to conditions: Candida albicans, C. albicans 475/15, mean ± SD of three replicates.
Excerpt: as §6, §7

A further series relates to C. albicans 527/14. The series is described as follows: Microdilution assay, MIC and MFC. Type of series: cell-based. As to conditions: Candida albicans, C. albicans 527/14, mean ± SD of three replicates.
Excerpt: as §6, §7

Series [8] relates to CDR1. As to conditions: identical assay, previously published; cited from earlier work.
Series [9] has as its system ERG11. As to conditions: identical assay, previously published; cited from earlier work.

Data on three molecules can be found in PMC7824033, “Flavones, Flavonols, and Glycosylated Derivatives—Impact on Candida albicans Growth and Virulence, Expression of CDR1 and ERG11, Cytotoxicity” (Pharmaceuticals, 2020).

In brackets after ≈: the same amount, converted by molar mass. Entries after “also recorded” stand apart in the source; their conditions may differ. Read-outs that look alike come from different tables or passages of the source.

One may read the GI50 as the concentration that inhibits growth by half. One may read the MIC as the least concentration at which growth counts as inhibited. Regarding `O=c1cc(-c2ccc(O)cc2)oc2cc(O)cc(O)c12` [Apigenin, apigenin], in series [1], the “reduction of biofilm formation” value is on record as “more than 50%”. The “reduction of hyphal growth (words)” value in series [2] is recorded as “lowest number of cells growing in the hyphal form”. Besides, the “CDR1 expression level, log2FC” value in the series with CDR1 [3] is less than −1 log2FC. Besides, the “impact on CDR1 expression” value in the series with CDR1 [3] (listed as apigenin) is “downregulated; also recorded: inhibitory impact; also recorded: lowering CDR1 expression”. For the same molecule, the “impact on ERG11 expression (words)” value with ERG11 [4] is given as “negative impact”; in the series on ERG11 [4] (listed as apigenin), “lower expression levels; also recorded: lowering ERG11 expression”. In the series “in vitro”, the 50% growth inhibitory concentration (GI50) was more than 400 µg/mL. Moreover, the MIC with C. albicans 475/15 [5] is listed as 100 µg/mL (≈ 370 µM). Further, the “antibiofilm effect” value with C. albicans biofilm (125 µg/mL, oral and reference isolates SC5314 and 3153A) is given as “did not show any antibiofilm effect”. The “concentration necessary for biofilm reduction” value in the series with C. albicans biofilm (C. albicans ATCC 90028) was 5 µg/mL. Moreover, in the series with S. aureus efflux, the “concentration that inhibited bacterial efflux pumps” value is 38 µg/mL. Besides, the CC50 in series [6] was 110 µM.
`O=c1cc(-c2ccc(O)cc2)oc2cc(O[C@@H]3O[C@H](CO)[C@@H](O)[C@H](O)[C@H]3O)cc(O)c12` [Apigetrin, apigetrin]: the “antibiofilm activity” value in [1] (MIC and subMICs) is given as “notably lowered”. Besides, in series [1] (compound applied at MIC/2), the “inhibition of biofilm formation” value is more than 60%. For the same molecule, in [1], the “reduction of biofilm formation” value is on record as “more than 50%”. Further, in series [2], the “reduction of hyphal growth (words)” value was “lowest number of cells growing in the hyphal form; also recorded: strongest anti-hyphal potential”. For the same molecule, in the series on CDR1 [3], the “impact on CDR1 expression” value is on record as “downregulated; also recorded: inhibitory impact; also recorded: lowering CDR1 expression” and the “CDR1 expression level, log2FC” value was less than −1 log2FC. In addition, the GI50 in the series “in vitro” came out at 90 ± 1 µg/mL (≈ 208 µM). Moreover, in the series on porcine liver cells PLP2, the “cytotoxic effect” value was “some cytotoxic effect”. The MIC in the series with C. albicans 475/15 [5] is 50 µg/mL (≈ 116 µM). The “cytotoxicity” value in the series with 3T3-L1 pre-adipocytes is on record as “does not induce cytotoxicity”.
One may read the MFC as the lowest tested concentration that kills the fungus rather than only halting it. For `CC(=O)N1CCN(c2ccc(OCC3COC(Cn4ccnc4)(c4ccc(Cl)cc4Cl)O3)cc2)CC1` (centres unmarked) [Ketoconazole, reference compound], the minimum fungicidal concentration (MFC) in the series with C. albicans 10/15 (read-out: MFC) came to 50 ± 0.1 µg/mL (≈ 94.1 µM); in the series with C. albicans 13/15 (read-out: MFC) it was 50 ± 0.2 µg/mL (≈ 94.1 µM); in the series on C. albicans 475/15 [7] (read-out: MFC), 6.2 ± 0.1 µg/mL (≈ 11.7 µM); in the series with C. albicans 527/14 (read-out: MFC), 6.2 ± 0.1 µg/mL (≈ 11.7 µM). Moreover, the minimal inhibitory concentration (MIC) was 3.1 ± 0.1 µg/mL (≈ 5.83 µM) in the series with C. albicans 10/15 (read-out: MIC), 1.6 ± 0.2 µg/mL (≈ 3.01 µM) in the series with C. albicans 13/15 (read-out: MIC), 3.1 ± 0.1 µg/mL (≈ 5.83 µM) in the series on C. albicans 475/15 [7] (read-out: MIC) and 3.1 ± 0.1 µg/mL (≈ 5.83 µM) with C. albicans 527/14 (read-out: MIC). Besides, in the series with CDR1 [8], the “impact on CDR1 expression” value is “lack”. In the series on ERG11 [9], the “impact on ERG11 expression (words)” value is reported as “lack”.
